Reference: PubChem BioAssay (NCI)
“And” between values parts separate entries of the source, which are not always exact repeats. Equal values may be shown once.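 Five concentrations, 48 hours, 96-well plates. GI50 is the concentration that inhibits growth by half. Definition used: TGI = concentration required for complete inhibition of growth.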

Assays:
Test in all cases: NCI-60 cell line screen, 48 h
786-0 renal = system: 786-0 renal
BT-549 breast = system: BT-549 breast
EKVX NSCLC = system: EKVX NSCLC
HCC-2998 colon = system: HCC-2998 colon
KM12 colon = system: KM12 colon
NCI-H460 lung = system: NCI-H460 lung
OVCAR-5 ovarian = system: OVCAR-5 ovarian
SF-295 CNS = system: SF-295 CNS
SN12C renal = system: SN12C renal
UO-31 renal = system: UO-31 renal

Row | Structure (SMILES) | GI50 (786-0 renal) | TGI (786-0 renal) | GI50 (BT-549 breast) | TGI (BT-549 breast) | GI50 (EKVX NSCLC) | TGI (EKVX NSCLC) | GI50 (HCC-2998 colon) | TGI (HCC-2998 colon) | GI50 (KM12 colon) | TGI (KM12 colon) | GI50 (NCI-H460 lung) | TGI (NCI-H460 lung) | GI50 (OVCAR-5 ovarian) | TGI (OVCAR-5 ovarian) | GI50 (SF-295 CNS) | TGI (SF-295 CNS) | GI50 (SN12C renal) | TGI (SN12C renal) | GI50 (UO-31 renal) | TGI (UO-31 renal)
1 | C1=C(c2ccccc2)C(c2ccc(OCCN3CCCCC3)cc2)Oc2ccccc21 (configuration not stated) | 1.5 µM | 2.83 µM | 1.61 µM | 3.07 µM | 1.54 µM | 3.35 µM | 1.72 µM | 3.38 µM | 1.74 µM | 3.29 µM | 1940 nM | 3.72 µM | 1.61 µM | 3.29 µM | 1.72 µM | 3.29 µM | 1.92 µM | 3.73 µM | 1410 nM | 3.16 µM
2 | COc1ccc2c(c1)cn1c3ccc(O)cc3[nH]c(=O)c21 | 0.334 µM | 5.49 µM | 2.73 µM | 19.2 µM | 0.797 µM | 19.2 µM | 0.667 µM | 4.42 µM | 0.329 µM | 5.39 µM | 138 nM | 1.62 µM | 2.79 µM | 21.5 µM | 0.248 µM | 3.52 µM | 0.403 µM | 17.9 µM | 264 nM | 13.1 µM
3 | CNC(=O)OC1C(O[C@H]2C[C@H]3[C@@H]4CC=C5C[C@@H](O)CC[C@]5(C)[C@H]4CC[C@]3(C)[C@H]2[C@H](C)C(=O)CCC(C)C)OCC(O)C1OC1OCC(O)C(O)C1OC(=O)c1ccc(OC)cc1 (some centres not stated) | 0.00341 µM | 0.652 µM | < 0.00275 µM | 3.49 µM | 0.0396 µM | 3.47 µM | 0.693 µM | 5.25 µM | 0.106 µM | 4.97 µM | 11.5 nM | 0.491 µM | 0.235 µM | 5.01 µM | < 0.00275 µM | 0.00628 µM | 2.64 µM | 6.83 µM | 76.6 nM | 0.241 µM
4 | Nc1ccc2ccc(NS(=O)(=O)N3CCCCC3)cc2c1 | 5.32 µM | > 100 µM | 0.69 µM | > 84.3 µM | 2.05 µM | > 100 µM | 0.707 µM | > 24.8 µM | 0.273 µM | > 65.7 µM | 409 nM | – | – | > 100 µM | 0.228 µM | 2.88 µM | 0.653 µM | > 100 µM | 1700 nM | > 100 µM
5 | CCOc1ccc2ccc3cccnc3c2n1 | – | > 100 µM | – | > 100 µM | – | > 100 µM | – | > 100 µM | – | > 100 µM | – | > 100 µM | – | > 100 µM | – | > 100 µM | – | > 100 µM | – | > 100 µM
6 | C/C1=C\C/C=C(\C)[C@H]2CC(CC/C(C)=C/CC1)[C@](C)(C=O)O2 | > 100 µM | > 100 µM | 20.9 µM | > 100 µM | > 100 µM | > 100 µM | 49.8 µM | > 100 µM | > 100 µM | > 100 µM | 85100 nM | > 100 µM | > 100 µM | > 100 µM | 28.9 µM | 96.2 µM | > 100 µM | > 100 µM | > 100000 nM | > 100 µM
7 | O=C1c2ccn(CCCCN3CCCCC3)c2C(=O)c2c1c(O)c1ccccc1c2O | 5.28 µM | – | 17.7 µM | 38.3 µM | 15.2 µM | 36.1 µM | 2.95 µM | 9.98 µM | 8.55 µM | 27.5 µM | 3880 nM | 16.3 µM | 17.9 µM | > 46 µM | 13.2 µM | 45.4 µM | 16.5 µM | 45 µM | 20900 nM | > 100 µM
8 | O=C(Nc1ccccc1O)c1ccc(CNC(=O)c2sccc2Nc2ccnc(C(F)(F)F)c2)cc1 | 9.92 µM | 25 µM | 5.54 µM | 35 µM | 8.77 µM | 57.7 µM | 10.1 µM | 22.4 µM | 12.2 µM | 32 µM | 5190 nM | 21.4 µM | 5.9 µM | 24.6 µM | 8.33 µM | 21.8 µM | 13.7 µM | 55.1 µM | 2820 nM | 15.9 µM
9 | O=C1C(=O)c2ccccc2C(O)=C1CC=C(Cl)Cl | 4.63 µM and 13.4 µM | > 68.9 µM and 250 µM and > 100 µM | 16.3 µM and 27.1 µM | 94.6 µM and 139 µM and > 100 µM | 13.4 µM | 57.1 µM and 206 µM | 15.3 µM and 13.8 µM | > 80.9 µM and 133 µM and > 100 µM | 11.7 µM and 5.17 µM | > 82.8 µM and 161 µM and > 100 µM | 1660 nM | 49.8 µM and 79.1 µM and 25.5 µM | 17.2 µM and 28.3 µM | 195 µM and > 100 µM | 9.87 µM and 7.86 µM | 75.5 µM and 137 µM | 5.92 µM | > 86.9 µM and 137 µM and > 100 µM | 15800 nM and 7260 nM | 81.2 µM and 101 µM and > 100 µM
10 | O=C(Nc1cccc(O)c1)c1cccc(NC2=C(Cl)C(=O)N(Cc3ccccc3)C2=O)c1 | 15.2 µM | 30.2 µM | 0.396 µM | 2.05 µM | 17.3 µM | 32.1 µM | 15.8 µM | 29.4 µM | 11.4 µM | 25 µM | 36800 nM | > 100 µM | 12.1 µM | 28 µM | 6.39 µM | 21.3 µM | 8.26 µM | 22.1 µM | 6610 nM | 21.7 µM
11 | Cc1cc(C)n(C(=O)c2nn(-c3ccc(Cl)cc3)cc2O)n1 | 9.64 µM | > 100 µM | 2.19 µM | 26.3 µM | 4.87 µM | > 100 µM | 15.1 µM | > 100 µM | 5.07 µM | > 100 µM | 2380 nM | 6.04 µM | 4.98 µM | > 100 µM | 1.81 µM | 6.73 µM | 3.37 µM | > 100 µM | 3010 nM | 19.2 µM
12 | COc1ccc(Cl)cc1NC(=O)c1cccc([N+](=O)[O-])c1O | – | 58.7 µM | – | 27.4 µM | – | 51.4 µM | – | 62.1 µM | – | > 72 µM | – | > 81.2 µM | – | > 100 µM | – | 55.3 µM | – | > 75.3 µM | – | 39.8 µM
13 | CC(C)(C)OC(=O)CN1CCc2c(sc3ncnc(N/N=C/c4cccc5ccccc45)c23)C1 | 4.11 µM | 16.4 µM | 6.03 µM | > 33.3 µM | 2.22 µM | > 33.3 µM | 3.6 µM | 11.7 µM | 3.53 µM | 9.8 µM | 1620 nM | 6.22 µM | 3.34 µM | 8.41 µM | 4.41 µM | 10.2 µM | 3.65 µM | 9.04 µM | 1190 nM | 5.87 µM
